# Results: patent publication EP0958820A1, “Use of an imidazol derivative for the manufacture of a medicament for treating auto-immunodiseases” (Sanofi-Synthélabo, priority 1998, dated 1999)
# Where a name gives a salt, the structure may show the parent alone.
# Experiments:
# Type in all cases: cell-based
# [1] = test system: TNF-α production from mouse BMMC; experiment: Antigen-induced TNF-α production from mouse BMMC (ELISA); details: 4 hours after antigen
# Experimental: (§1) • 1. Test drugs Mizolastine and terfenadine used were synthesised according to well known method in the art. Ketotifen fumarate (hereinafter 'ketotifen') was obtained from Toa Boshoku and dexamethasone from Sigma. • 2. Animals […] female mice and Balb/c female mice were used. • 3. Preparation of bone marrow-derived mast cells (hereinafter 'BMMC') Mouse BMMC were prepared in accordance with the method of Saito et al. J. Immunol. 138: 3927-3934, 1987. That is to say, femoral bone marrow cells from female CBA/J mice were suspended to concentrations of 2-5 x 10^5/ml in RPMI 1640 medium to which 50% of WEHI-3 culture supernatant had been added (containing 10% FBS, 5 x 10^-5M 2-mercaptoethanol, 50IU/ml penicillin, […] streptomycin). • 4. Production of IL-4 and TNF-α from mouse BMMC A 1/250 volume of anti-mouse DNP-IgE monoclonal antibody (Seikagaku Kogyo, […]) was added to mouse BMMC (2 x 10^6 cells/ml) and they were further sensitised by being incubated overnight. The sensitised BMMC were washed three times with RPMI 1640 medium, then suspended in RPMI 1640 medium to which 50% of WEHI-3 culture supernatant had been added to give 1.25 x 10^6 cells/ml (IL-4) or 3.75 x 10^6 cells/ml (TNF-α ). Having added 40 µl of a test drug solution prepared as a ten-fold dilution to 320 µl/well of the cell suspension and treated the cells for 30 minutes to one hour at 37°C in 5% CO2, antigen stimulation was applied adding 40 µl of a solution of dinitrophenyl human serum albumin (Sigma; hereinafter 'DNP-HSA'; 300ng/ml) (reaction solution 400 µl/well/48 well plate, final cell concentration 1∼3 x 10^6 cells/ml, final antigen concentration 30ng/ml). The level of the cytokine in the supernatant fluid from the culture was assayed by ELISA 18 hours (IL-4) or 4 hours (TNF-α ) following stimulation with the antigen. • 5. […] The level of TNF-α in the culture supernatant fluid was determined by ELISA 18 hours after stimulating with okadaic acid. • 6. […]
# [2] = test system: IL-4 production from mouse BMMC; experiment: Antigen-induced IL-4 production from mouse BMMC (ELISA)
# Experimental: as §1
# [3] = test system: TNF-α production from mouse macrophages; experiment: Okadaic acid-induced TNF-α production from mouse peritoneal macrophages (ELISA); details: Macrophage, okadaic acid 0.2 µM, 18 hours
# Experimental: as §1, with “).” for “). Having added 40 µl of a test drug solution prepared as a ten-fold dilution to 320 µl/well of the cell suspension and treated the cells for 30 minutes to one hour at 37°C in 5% CO2, antigen stimulation was applied adding 40 µl of a solution of dinitrophenyl human serum albumin (Sigma; hereinafter 'DNP-HSA'; 300ng/ml) (reaction solution 400 µl/well/48 well plate, final cell concentration 1∼3 x 10^6 cells/ml, final antigen concentration 30ng/ml). The level of the cytokine in the supernatant fluid from the culture was assayed by ELISA 18 hours (IL-4) or 4 hours (TNF-α ) following stimulation with the antigen. • 5.”
smiles,measurement,setting,value
"C[C@@H]1C[C@H]2[C@@H]3CCC4=CC(=O)C=C[C@]4(C)[C@@]3(F)[C@@H](O)C[C@]2(C)[C@@]1(O)C(=O)CO [Dexamethasone, dexamethasone]",inhibition at 1 µM,"[1]; Mus musculus, at 1 µM",68.7%
same,inhibition at 1 µM,"[2]; Mus musculus, at 1 µM, DNP-HSA stimulated, anti-DNP-IgE sensitised BMMC, 18 hours",61.6%
CC(C)(C)c1ccc(C(O)CCCN2CCC(C(O)(c3ccccc3)c3ccccc3)CC2)cc1 (stereo not shown) [terfenadine],inhibition at 1 µM,[3],24.6%
same,activity against TNF-α production,[1]; 0.01∼1 µM,no activity
same,activity on IL-4 production,[2]; concentrations of 0.01∼1 µM,no activity
"CN1CCC(=C2c3ccccc3CC(=O)c3sccc32)CC1 [Ketotifen, Ketotifen fumarate]",activity against TNF-α production,[1]; 0.1∼10 µM,no activity
same,inhibition at 10 µM,"[2]; Mus musculus, at 10 µM, DNP-HSA stimulated, anti-DNP-IgE sensitised BMMC, 18 hours",65.6%
